According to patent US4684664A, “Derivatives of β-(4-isocyano-1,2,3,4-diepoxycyclopentyl) acrylic acid” (Kureha Kagaku Kogyo Kabushiki Kaisha, priority 1984, dated 1987):
≈ marks a conversion by molar mass, not a printed value.

What was measured:
Format in all cases: cell-based
[1] = tested on: Enterobacter cloacae 963; assay: Antibacterial activity, agar-dilution MIC, organism No. 24; details: Enterobacter cloacae, 963; Organism No. 24, bouillon-agar; read-out: Minimum Inhibitory Concentration
Method in brief: (§1)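 Endpoint: MIC in μg/ml of culture medium. Method: agar dilution. Medium: bouillon agar.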

[2] = tested on: Bacillus subtilis ATCC 6633; assay: Antibacterial activity, agar-dilution MIC, organism No. 14; details: Bacillus subtilis, ATCC6633; Organism No. 14, bouillon-agar; read-out: Minimum Inhibitory Concentration
Method in brief: as §1

[3] = tested on: Proteus mirabilis IFO 3849; assay: Antibacterial activity, agar-dilution MIC, organism No. 19; details: Proteus mirabilis, IFO3849; Organism No. 19, bouillon-agar; read-out: Minimum Inhibitory Concentration
Method in brief: as §1

[4] = tested on: Escherichia coli NIHJ-JC-2; assay: Antibacterial activity, agar-dilution MIC, organism No. 5; details: Escherichia coli, NIHJJC2; Organism No. 5, bouillon-agar; read-out: Minimum Inhibitory Concentration
Method in brief: as §1

[5] = tested on: Staphylococcus aureus FDA 209PJc-1; assay: Antibacterial activity, agar-dilution MIC, organism No. 1; details: Staphylococcus aureus, FDA209PJC1; Organism No. 1, bouillon-agar; read-out: Minimum Inhibitory Concentration
Method in brief: as §1

[6] = tested on: Streptococcus pyogenes IFO 3340; assay: Antibacterial activity, agar-dilution MIC, organism No. 26; details: Streptococcus pyogenes, IFO3340; Organism No. 26, bouillon-agar; read-out: Minimum Inhibitory Concentration
Method in brief: as §1

[7] = tested on: Klebsiella pneumoniae PCI-602; assay: Antibacterial activity, agar-dilution MIC, organism No. 7; details: Klebsiella pneumoniae, PCI602; Organism No. 7, bouillon-agar; read-out: Minimum Inhibitory Concentration
Method in brief: as §1

[8] = tested on: Micrococcus luteus ATCC 9341; assay: Antibacterial activity, agar-dilution MIC, organism No. 25; details: Micrococcus luteus, ATCC9341; Organism No. 25, bouillon-agar; read-out: Minimum Inhibitory Concentration
Method in brief: as §1

[9] = tested on: Salmonella typhimurium IID 971; assay: Antibacterial activity, agar-dilution MIC, organism No. 8; details: Salmonella enterica; Organism No. 8, bouillon-agar; read-out: Minimum Inhibitory Concentration
Method in brief: as §1

[10] = tested on: Staphylococcus aureus MS 353; assay: Antibacterial activity, agar-dilution MIC, organism No. 3; details: Staphylococcus aureus, MS353; Organism No. 3, bouillon-agar; read-out: Minimum Inhibitory Concentration
Method in brief: as §1

[11] = tested on: Serratia marcescens IAM 1184; assay: Antibacterial activity, agar-dilution MIC, organism No. 13; details: Serratia marcescens, IAM1184; Organism No. 13, bouillon-agar; read-out: Minimum Inhibitory Concentration
Method in brief: as §1

[12] = tested on: Pseudomonas aeruginosa NCTC 10490; assay: Antibacterial activity, agar-dilution MIC, organism No. 16; details: Pseudomonas aeruginosa, NCTC10490; Organism No. 16, bouillon-agar; read-out: Minimum Inhibitory Concentration
Method in brief: as §1

[13] = tested on: Streptococcus faecium IFO 3826; assay: Antibacterial activity, agar-dilution MIC, organism No. 27; details: Enterococcus faecium, IFO3826; Organism No. 27, bouillon-agar; read-out: Minimum Inhibitory Concentration
Method in brief: as §1

[14] = tested on: Proteus rettgeri IFO 3850; assay: Antibacterial activity, agar-dilution MIC, organism No. 22; details: Providencia rettgeri, IFO3850; Organism No. 22, bouillon-agar; read-out: Minimum Inhibitory Concentration
Method in brief: as §1

[15] = tested on: Enterobacter aerogenes ATCC 13048; assay: Antibacterial activity, agar-dilution MIC, organism No. 23; details: Klebsiella aerogenes, ATCC13048; Organism No. 23, bouillon-agar; read-out: Minimum Inhibitory Concentration
Method in brief: as §1

[16] = tested on: Mycoplasma pneumoniae IID817; assay: Antimycoplasmal activity, MIC by phenol red colour change, organism No. 28; details: Mycoplasma, IID817; Organism No. 28, PPLO broth + 1% glucose, 37° C.; read-out: Minimum Inhibitory Concentration (MIC)
Description: Mycoplasma pneumoniae IID817 was used as the test microorganism in a culture medium prepared by adding 1% of glucose to "PPLO broth (manufactured by Difco Co.) liquid culture medium" at 37° C. with phenol red as an indicator, thereby culturing the test microorganism.

[17] = tested on: Escherichia coli K12 C600 IAM 1264; assay: Antibacterial activity, agar-dilution MIC, organism No. 6; details: Escherichia coli, IAM1264; Organism No. 6, bouillon-agar; read-out: Minimum Inhibitory Concentration
Method in brief: as §1

[18] = tested on: Pseudomonas aeruginosa PAO 1; assay: Antibacterial activity, agar-dilution MIC, organism No. 17; details: Pseudomonas aeruginosa, PAO1; Organism No. 17, bouillon-agar; read-out: Minimum Inhibitory Concentration
Method in brief: as §1

[19] = tested on: Salmonella enteritidis G 14; assay: Antibacterial activity, agar-dilution MIC, organism No. 12; details: Salmonella enterica, ENTERITIDIS; Organism No. 12, bouillon-agar; read-out: Minimum Inhibitory Concentration
Method in brief: as §1

[20] = tested on: Salmonella typhi 901; assay: Antibacterial activity, agar-dilution MIC, organism No. 9; details: Salmonella enterica, TYPHI, read-out: Minimum Inhibitory Concentration
Method in brief: as §1

[21] = tested on: Proteus vulgaris OX-19; assay: Antibacterial activity, agar-dilution MIC, organism No. 20; details: Proteus vulgaris, OX19; Organism No. 20, bouillon-agar; read-out: Minimum Inhibitory Concentration
Method in brief: as §1

[22] = tested on: Candida albicans IAM 4905; assay: Antifungal activity, agar-dilution MIC, organism No. 29; details: Candida albicans, IAM4905; Organism No. 29, bouillon-agar; read-out: Minimum Inhibitory Concentration
Method in brief: as §1

[23] = tested on: Salmonella shottmuelleri 8006; assay: Antibacterial activity, agar-dilution MIC, organism No. 11; details: Salmonella, 8006; Organism No. 11, bouillon-agar; read-out: Minimum Inhibitory Concentration
Method in brief: as §1

[24] = tested on: Proteus morganii IFO 3848; assay: Antibacterial activity, agar-dilution MIC, organism No. 18; details: Morganella morganii, IFO3848; Organism No. 18, bouillon-agar; read-out: Minimum Inhibitory Concentration
Method in brief: as §1

[25] = tested on: Pseudomonas aeruginosa IFO 3445; assay: Antibacterial activity, agar-dilution MIC, organism No. 15; details: Pseudomonas aeruginosa, IFO3445; Organism No. 15, bouillon-agar; read-out: Minimum Inhibitory Concentration
Method in brief: as §1

[26] = tested on: Proteus vulgaris HX-19; assay: Antibacterial activity, agar-dilution MIC, organism No. 21; details: Proteus vulgaris, HX19; Organism No. 21, bouillon-agar; read-out: Minimum Inhibitory Concentration
Method in brief: as §1

[27] = tested on: Aspergillus niger IFO 6342; assay: Antifungal activity, agar-dilution MIC, organism No. 30; details: Aspergillus niger, IFO6342; Organism No. 30, bouillon-agar; read-out: Minimum Inhibitory Concentration
Method in brief: as §1

[28] = tested on: Staphylococcus aureus Terajima; assay: Antibacterial activity, agar-dilution MIC, organism No. 2; details: Staphylococcus aureus; Organism No. 2, bouillon-agar; read-out: Minimum Inhibitory Concentration
Method in brief: as §1

[29] = tested on: Salmonella paratyphi-A 1015; assay: Antibacterial activity, agar-dilution MIC, organism No. 10; details: Salmonella enterica, PARATYPHI, read-out: Minimum Inhibitory Concentration
Method in brief: as §1

[30] = tested on: Streptococcus pyogenes Cook; assay: Antibacterial activity, agar-dilution MIC, organism No. 4; details: Streptococcus pyogenes; Organism No. 4, bouillon-agar; read-out: Minimum Inhibitory Concentration
Method in brief: as §1

| SMILES | MIC [1] | MIC [2] | MIC [3] | MIC [4] | MIC [5] | MIC [7] | MIC [8] | MIC [9] | MIC [10] | MIC [11] | MIC [12] | MIC [14] | MIC [15] | MIC [16] | MIC [17] | MIC [18] | MIC [19] | MIC [20] | MIC [21] | MIC [22] | also measured |
| --- | --- | --- | --- | --- | --- | --- | --- | --- | --- | --- | --- | --- | --- | --- | --- | --- | --- | --- | --- | --- | --- |
| [C-]#[N+]C12CC3(/C=C/C(=O)Nc4ccccc4N)OC3C1O2 (stereo not shown) [compound 61] | 100 µg/mL (≈ 353 µM) | 25 µg/mL (≈ 88.2 µM) | 12.5 µg/mL (≈ 44.1 µM) | 12.5 µg/mL (≈ 44.1 µM) | 3.13 µg/mL (≈ 11 µM) | 1.56 µg/mL (≈ 5.51 µM) | 0.78 µg/mL (≈ 2.75 µM) | 6.25 µg/mL (≈ 22.1 µM) | 3.13 µg/mL (≈ 11 µM) | 25 µg/mL (≈ 88.2 µM) | > 200 µg/mL | 3.13 µg/mL (≈ 11 µM) | > 200 µg/mL | < 0.2 µg/mL | 12.5 µg/mL (≈ 44.1 µM) | > 200 µg/mL | 3.13 µg/mL (≈ 11 µM) | 3.13 µg/mL (≈ 11 µM) | 3.13 µg/mL (≈ 11 µM) | 25 µg/mL (≈ 88.2 µM) | MIC [6]: 6.25 µg/mL (≈ 22.1 µM); MIC [13]: 100 µg/mL (≈ 353 µM); MIC [23]: 3.13 µg/mL (≈ 11 µM); MIC [24]: 3.13 µg/mL (≈ 11 µM); MIC [25]: > 200 µg/mL; MIC [26]: 1.56 µg/mL (≈ 5.51 µM); MIC [27]: 100 µg/mL (≈ 353 µM); MIC [28]: 12.5 µg/mL (≈ 44.1 µM); MIC [29]: 3.13 µg/mL (≈ 11 µM) |
| [C-]#[N+]C12CC3(/C=C/C(=O)Nc4nccs4)OC3C1O2 (stereo not shown) [compound 65] | > 200 µg/mL | 12.5 µg/mL (≈ 45.4 µM) | > 200 µg/mL | 12.5 µg/mL (≈ 45.4 µM) | < 0.1 µg/mL | 1.56 µg/mL (≈ 5.67 µM) | 0.1 µg/mL (≈ 0.363 µM) | 25 µg/mL (≈ 90.8 µM) | < 0.1 µg/mL | 12.5 µg/mL (≈ 45.4 µM) | > 200 µg/mL | 100 µg/mL (≈ 363 µM) | > 200 µg/mL | < 0.2 µg/mL | 6.25 µg/mL (≈ 22.7 µM) | > 200 µg/mL | 3.13 µg/mL (≈ 11.4 µM) | 3.13 µg/mL (≈ 11.4 µM) | 3.13 µg/mL (≈ 11.4 µM) | 12.5 µg/mL (≈ 45.4 µM) | MIC [23]: 1.56 µg/mL (≈ 5.67 µM); MIC [24]: 1.56 µg/mL (≈ 5.67 µM); MIC [25]: > 200 µg/mL; MIC [26]: 0.2 µg/mL (≈ 0.727 µM); MIC [27]: 50 µg/mL (≈ 182 µM); MIC [28]: 0.39 µg/mL (≈ 1.42 µM); MIC [30]: 12.5 µg/mL (≈ 45.4 µM); MIC [29]: 1.56 µg/mL (≈ 5.67 µM) |
| [C-]#[N+]C12CC3(/C=C/C(=O)NC4=NCCS4)OC3C1O2 (stereo not shown) [compound 66] | > 200 µg/mL | 25 µg/mL (≈ 90.2 µM) | 200 µg/mL (≈ 721 µM) | 25 µg/mL (≈ 90.2 µM) | 12.5 µg/mL (≈ 45.1 µM) | 6.25 µg/mL (≈ 22.5 µM) | 0.1 µg/mL (≈ 0.361 µM) | 25 µg/mL (≈ 90.2 µM) | 12.5 µg/mL (≈ 45.1 µM) | > 200 µg/mL | > 200 µg/mL | > 200 µg/mL | > 200 µg/mL | < 0.2 µg/mL | 50 µg/mL (≈ 180 µM) | > 200 µg/mL | 6.25 µg/mL (≈ 22.5 µM) | 6.25 µg/mL (≈ 22.5 µM) | 3.13 µg/mL (≈ 11.3 µM) | 25 µg/mL (≈ 90.2 µM) | MIC [23]: 12.5 µg/mL (≈ 45.1 µM); MIC [24]: 3.13 µg/mL (≈ 11.3 µM); MIC [25]: > 200 µg/mL; MIC [26]: 3.13 µg/mL (≈ 11.3 µM); MIC [27]: 50 µg/mL (≈ 180 µM); MIC [28]: 25 µg/mL (≈ 90.2 µM); MIC [30]: 12.5 µg/mL (≈ 45.1 µM); MIC [29]: 12.5 µg/mL (≈ 45.1 µM) |
